We go through ten compounds from patent publication US12216122B2, “Compositions and methods relating to detection, inhibition, and imaging of indoleamine 2,3-dioxygenase 1 (IDO1)” (Regeneron Pharmaceuticals, Inc., priority 2019, dated 2025).

Like-named read-outs stand apart in the source and are kept apart here. Numbered stars: 1 amine (or outer) side, 2 acyl side, 3 side chain; on linkers, the order of the positions; unused ones are H or OH. Bridge positions count the residues as written; N and C are the ends. Square brackets hold non-standard residues; d marks the D form. Triazole bridges read from a SMILES are 1,4-linked. Ends that are not written are not given here. Peptide text beside a SMILES is read from it. * marks the point of attachment. ξ: configuration not given here. NH(CH2CH2O)5CH2CO = O=C(COCCOCCOCCOCCOCCN[*:1])[*:2]; Biotinyl(4ξ) = O=C1N[C@H]2CSC(CCCCC(=O)*)[C@H]2N1; X2 = O=C(CCCCCSc1nonc1/C(=N/O)Nc1ccc(F)c(Br)c1)*; X1 = O=C(CSc1nonc1/C(=N/O)Nc1ccc(F)c(Br)c1)*; PEG8 = NCCOCCOCCOCCOCCOCCOCCOCCOCCC(=O)O; Lys(N3) = [N-]=[N+]=NCCCC[C@H](N)C(=O)O; PEG6 = NCCOCCOCCOCCOCCOCCOCCC(=O)O; AEEEA = NCCOCCOCCOCC(=O)O; Pra = C#CC[C@H](N)C(=O)O

Assay [1] concerns the target T1, IDO1 in IFNγ stimulated HeLa cells (Homo sapiens, UniProt P14902).
T1 construct: endogenous in cells; host or cells: HeLa cells stimulated with IFNγ
The experiment in a line: IDO1 inhibition assay in HeLa cells stimulated with IFNγ. It is filed as cell-based. The following applies: for inhibition at 8 µM: HeLa. The procedure:
Lead compounds prioritized in the recombinant IDO1 inhibition assay were advanced to a cellular IDO1 inhibition assay.
Protocol: HeLa cells were trypsinized and diluted to a density of 2×10^5 cells/mL in cell culture medium (DMEM+10% Fetal Bovine Serum (FBS)+1% Penicillin/Streptomycin). Sterile L-tryptophan was added to the cells at a final concentration of 300 μM. IFNγ at a final concentration of 100 ng/mL was added to HeLa cells to stimulate IDO1 expression. Unstimulated HeLa cells in the absence of IFNγ were used for background subtraction. HeLa cells with or without IFNγ were plated in 96-well Greiner black assay plates at a density of 22,000 cells/well. […] 8 μL of each compound dilution were then dispensed into the Greiner black 96-well assay plate(s) containing HeLa cells in triplicate, yielding final assay compound concentrations of 8 μM serially diluted to 1.27 nM. The plates were incubated at 37° C. with 5% CO2. After 48 hours, 24 μL of 0.5 M methyl isonipecotate in DMSO were added into each well and the plates were sealed and incubated at 37° C. with 5% CO2 overnight. The resulting fluorescence was measured in a BioTek Synergy H1 plate reader with a 400 nm excitation filter and a 510 nm emission filter. The fluorescence intensity of each well was corrected for the background observed in wells with non-IFNγ-treated cells and was expressed as a fraction of the intensity observed in wells of IFNγ-treated cells with vehicle only.

In assay [2] the target is T2, recombinant human IDO1 (Homo sapiens, UniProt P14902).
T2 construct: purchased BPS Biosciences 72037
T2 sequence (P14902 whole entry): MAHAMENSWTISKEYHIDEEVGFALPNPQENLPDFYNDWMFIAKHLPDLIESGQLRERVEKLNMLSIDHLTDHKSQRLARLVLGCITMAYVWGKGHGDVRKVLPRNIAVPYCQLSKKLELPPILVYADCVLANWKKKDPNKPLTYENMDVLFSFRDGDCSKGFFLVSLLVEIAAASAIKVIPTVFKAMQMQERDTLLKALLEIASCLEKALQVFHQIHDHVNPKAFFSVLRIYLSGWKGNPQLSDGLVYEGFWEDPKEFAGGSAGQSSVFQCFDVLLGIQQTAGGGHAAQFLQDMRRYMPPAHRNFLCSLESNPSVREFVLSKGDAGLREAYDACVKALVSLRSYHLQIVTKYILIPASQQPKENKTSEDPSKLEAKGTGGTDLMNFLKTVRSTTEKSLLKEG
The assay is described as follows: IDO1 Fluorogenic Inhibitor Screening Assay (enzyme inhibition). It is filed as biochemical. The procedure:
The IDO1 Fluorogenic Inhibitor Screening Assay Kit (72037, BPS Biosciences) was used to measure the enzyme inhibition of human IDO1 in the presence of macrocyclic peptide ligands. IDO1 catalyzes the conversion of the essential amino acid L-tryptophan (L-Trp) to N-formylkynurenine (NFK). In the assay, the test inhibitor and enzyme were added to a sample containing L-Trp substrate. After incubation for 1 h at room temperature, 20 μL Fluorescence Solution was added and incubated at 37° C. for 4 h to produce a fluorescent product. Activity was measured by reading sample fluorescence at λ=510 nm following excitation of the reaction product at λ=400 nm.

The target of assay [3] is T3, His-tagged IDO1 human recombinant protein (Homo sapiens, UniProt P14902).
T3 construct: purchased BPS Biosciences 71182
T3 sequence (P14902 whole entry): as above
The assay is described as follows: IDO1 ELISA (Affinity Assay): sandwich ELISA, biotinylated ligand immobilized on NEUTRAVIDIN plate. It counts as binding. Here is the method:
Protocol: A black 96-well NEUTRAVIDIN® Coated High Binding Capacity plate (15510, Pierce) was coated with 2 μM biotinylated macrocyclic peptide ligand in TBS (25 mM Tris-HCl, 150 mM NaCl, pH 7.6) for 2 h at room temperature. The plate was aspirated and then washed with Wash Buffer (0.05% (v/v) TWEEN® 20 in PBS, 6×). His-tagged IDO1 human recombinant protein (71182, BPS Biosciences) was serially diluted in Wash Buffer (from 200 to 0 nM) and incubated in the designated microwells for 1 h at room temperature. Microwells were aspirated and subsequently washed with Wash Buffer (11×). To detect the bound IDO1 protein, Alkaline Phosphatase (AP)-conjugated Anti-6×HIS TAG® antibody [HIS-1] (ab49746, Abcam) was prepared at 1:10,000 dilution and added to the microwells for 1 h at room temperature. The plate was aspirated and washed with Wash Buffer (5×). ATTOPHOS® AP Fluorescent Substrate System (S1000, Promega) was employed to develop the microwells. Using an excitation wavelength of 430 nm, fluorescent emission at 535 nm was recorded by Beckman Coulter DTX880 photometer. Titration curves were fit using a four-parameter regression curve fitting program to determine EC50 values.
For these assays, a dilution series of His-tagged IDO1 human recombinant protein was captured using the macrocyclic peptide ligands immobilized on a NEUTRAVIDIN®-coated plate. […] The sequences of the peptide ligands are listed in Table 1, where D-amino acids are denoted in lowercase, Me-Trp=1-methyl-L-tryptophan, and F-Phe=4-fluoro-L-phenylalanine. Chemical structures are shown below Table 1.
The D-alanine substituted, biotin-PEG3-modified macrocycles were tested in the IDO1 ELISA (Affinity assay). For these assays, a dilution series of His-tagged IDO1 human recombinant protein was captured using macrocycles immobilized on a NEUTRAVIDIN®-coated plate.

Where [4] appears, read: read-out: % inhibition at 8 μM, HeLa, Table 17.
[5] abbreviates: Table 18, read-out: Inhibition Recombinant IDO1 IC50.
The mark [6] stands for this setting: Table 19, read-out: Inhibition Human rIDO1 IC50.
Setting [7] is: Table 18, read-out: Inhibition HeLa IC50.
The mark [8] stands for this setting: Table 19, read-out: Inhibition HeLa cells IC50.
Setting [9] is: PEG linker length series, wyry, read-out: IC50.
Setting [10] is: Table 17, read-out: Inhibition Recombinant IDO1 IC50.
Where [11] appears, read: N-methylated heterobiligands, PEG6 linker, read-out: IC50.
The mark [12] stands for this setting: PEG linker length series, wyvay, read-out: IC50.
Where [13] appears, read: Table 15, read-out: Inhibition Recombinant IDO1 IC50.

T1 sequence (P14902 whole entry): as above

Take `CC(C)[C@H]1NC(=O)[C@@H](Cc2ccc(O)cc2)NC(=O)[C@@H](Cc2c[nH]c3ccccc23)NC(=O)[C@@H](NC(=O)CCOCCOCCOCCOCCOCCOCCOCCOCCNC(=O)CSc2nonc2/C(=N/O)Nc2ccc(F)c(Br)c2)Cc2cn(nn2)CCCC[C@@H](C(N)=O)NC(=O)[C@@H](Cc2ccc(O)cc2)NC(=O)[C@@H](C)NC1=O` [Deprotected-Inh-PEG8-wyvay] ({X1-PEG8}-[Pra][dW][dY][dV][dA][dY][Lys(N3)]-NH2; triazole 1-7): the inhibition at 8 µM in assay [1] (setting [4]) amounted to 77.3%.

As for `O=C(O)CCCCCSc1nonc1/C(=N/O)Nc1ccc(F)c(Br)c1` [Inh2], the IC50 in assay [2] (setting [5]) was 343 nM; in assay [2] (setting [6]) it was 343 nM; in assay [1] (setting [7]), 0.997 µM; in assay [1] (setting [8]) it was 0.997 µM.

With `N=C(N)NCCC[C@H]1NC(=O)[C@@H](Cc2ccc(O)cc2)NC(=O)[C@@H](Cc2c[nH]c3ccccc23)NC(=O)[C@@H](NC(=O)CCOCCOCCOCCOCCOCCOCCNC(=O)CSc2nonc2/C(=N/O)Nc2ccc(F)c(Br)c2)Cc2cn(nn2)CCCC[C@@H](C(N)=O)NC(=O)[C@@H](Cc2ccc(O)cc2)NC1=O` [Inh-PEG6-wyry] ({X1-PEG6}-[Pra][dW][dY][dR][dY][Lys(N3)]-NH2; triazole 1-6), the “IDO1 inhibition potency relative to the small molecule (Inh) alone, in words” value in assay [2] is recorded as “more than three times as potent as Inh alone”. The IC50 in assay [2] (setting [9]) and in assay [2] (setting [10]) was 338 nM each time. The inhibition at 8 µM in assay [1] (setting [4]) was found to be 47.8%. Also, in assay [1] (Table 17), the “Inhibition HeLa IC50 nM” value is listed as “no curve fit”.

Turning to “d-Hex-Inh-PEG6-wyvay: heterobiligand with linker modified to increase lipophilicity, PEG6 ([dW][dY][dV][dA][dY]; also: d-Hex-inhibitor via PEG6 linker)”, the “Cellular IDO1 inhibition, in words” value in assay [1] is reported as “only showed inhibition at higher concentrations”.

Turning to `CC(C)[C@H]1NC(=O)[C@@H](Cc2ccc(O)cc2)NC(=O)[C@@H](Cc2c[nH]c3ccccc23)NC(=O)[C@@H](NC(=O)CCOCCOCCOCCOCCOCCOCCNC(=O)CSc2nonc2/C(=N/O)Nc2ccc(F)c(Br)c2)Cc2cn(nn2)CCCC[C@@H](C(N)=O)NC(=O)[C@@H](Cc2ccc(O)cc2)NC(=O)[C@@H](C)NC1=O` [Inh-PEG6-wyvay] ({X1-PEG6}-[Pra][dW][dY][dV][dA][dY][Lys(N3)]-NH2; triazole 1-7), the IC50 worked out at 44 nM in assay [2] (setting [11]); 265 nM in assay [2] (setting [12]); 44 nM in assay [2] (setting [13]); 265 nM in assay [2] (setting [6]); 35.7 µM in assay [1] (Table 17, cells print μM, read-out: Inhibition HeLa IC50); 35.7 µM in assay [1] (setting [8]). Also, the inhibition at 8 µM turned out to be 36.1% in assay [1] (read-out: % inhibition at 8 μM, HeLa cells, Table 19) and 36.1% in assay [1] (setting [4]).

For “d-Hex-Inh-PEG5-wyvay: heterobiligand with linker modified to increase lipophilicity, PEG5 ([dW][dY][dV][dA][dY]; also: d-Hex-inhibitor via PEG5 linker)”, the “Cellular IDO1 inhibition, in words” value in assay [1] was “good inhibition/cell penetration”.

As to “d-Hex-Inh-PEG4-wyvay: heterobiligand with linker modified to increase lipophilicity, PEG4 ([dW][dY][dV][dA][dY]; also: d-Hex-inhibitor via PEG4 linker)”, the “Cellular IDO1 inhibition, in words” value in assay [1] is on record as “only showed inhibition at higher concentrations”.

As for `CC(C)[C@H]1NC(=O)[C@@H](Cc2ccc(O)cc2)NC(=O)[C@@H](Cc2c[nH]c3ccccc23)NC(=O)[C@@H](NC(=O)COCCOCCOCCOCCOCCNC(=O)CCCCCSc2nonc2/C(=N/O)Nc2ccc(F)c(Br)c2)Cc2cn(nn2)CCCC[C@@H](C(N)=O)NC(=O)[C@@H](Cc2ccc(O)cc2)NC(=O)[C@@H](C)NC1=O` [Inh2-PEG5-wyvay] (X2-[NH(CH2CH2O)5CH2CO][Pra][dW][dY][dV][dA][dY][Lys(N3)]-NH2; triazole 2-8), the IC50 in assay [2] (setting [5]) is 539 nM; in assay [2] (setting [6]) it was 539 nM; in assay [1] (setting [7]), 0.221 µM; in assay [1] (setting [8]) it was 0.221 µM.

In the case of `O=C(O)CSc1nonc1/C(=N/O)Nc1ccc(F)c(Br)c1` [Inh], the IC50 in assay [2] (setting [11]) was 928 nM; in assay [2] (setting [9]), 1090 nM; in assay [2] (setting [12]), 1050 nM; in assay [2] (setting [13]), 928 nM; in assay [2] (setting [10]) it was 1090 nM; in assay [2] (setting [5]) it was 1090 nM. For the same compound, the IC50 in assay [2] (setting [6]) came to 1050 nM; in assay [2] (effect of linker and of protection of the inhibitor, read-out: IC50) it was 616 nM; in assay [2] (linker composition series, read-out: IC50), 693 nM; in assay [1] (Table 15, read-out: Inhibition HeLa cells IC50) it was 0.125 µM; in assay [1] (Table 17, read-out: Inhibition HeLa IC50), 0.244 µM; in assay [1] (setting [7]), 0.406 µM. Further, in assay [1] (setting [8]), the IC50 was 0.406 µM. Besides, the EC50 in assay [3] (binding analysis of VHL-linked Epitope 2 ligand, read-out: EC50) is above 1000 nM. Also, in assay [1] (setting [4]), the inhibition at 8 µM is 99.6%.

For the compound `C[C@H]1NC(=O)[C@@H](Cc2ccccc2)NC(=O)[C@@H](CCCNC(=N)N)NC(=O)[C@@H](Cc2ccccc2)NC(=O)[C@@H](NC(=O)COCCOCCOCCNC(=O)CCCCC2SC[C@@H]3NC(=O)N[C@H]23)Cc2cn(nn2)CCCC[C@@H](C(N)=O)NC(=O)[C@@H](CO)NC1=O` (some centres unmarked) [frfas, Biotin-PEG3-Cy(frfas)] ({Biotinyl(4ξ)-AEEEA}-[Pra][dF][dR][dF][dA][dS][Lys(N3)]-NH2; triazole 1-7), the “Binding to human IDO1 by ELISA, in words” value in assay [3] is “weakest binding to IDO1”.
